Measured values taken from the NIST ThermoML archive (doi:10.1021/je900468u).

Legend:
[1] = xn = mol fraction of the nth substance listed; conditions: 101 kPa, Liquid; for speed of sound: Pulse-echo method
[2] = refractive index (Na D-line) (dimensionless); xn = mol fraction of the nth substance listed; conditions: 101 kPa, Liquid, Standard Abbe refractometry
[3] = 101 kPa, Liquid; for speed of sound: Pulse-echo method
[4] = refractive index (Na D-line) (dimensionless); conditions: 101.33 kPa, Liquid, Standard Abbe refractometry

C1CCCCCCC1 [cyclooctane] + c1ccccc1
298.15 K
Conditions | mass density, [1] [kg/m3] | refractive index, [2] | speed of sound, [1] [m/s]
x1 = 0.0522 | 869.3 | 1.49384 | 1300
x1 = 0.102 | 865.4 | 1.49019 | 1301
x1 = 0.203 | 858.5 | 1.48375 | 1306
x1 = 0.3029 | 852.8 | 1.47827 | 1313
x1 = 0.4033 | 847.9 | 1.47346 | 1322
x1 = 0.5002 | 843.9 | 1.46955 | 1331
x1 = 0.5985 | 840.5 | 1.46607 | 1342
x1 = 0.7025 | 837.5 | 1.46284 | 1354
x1 = 0.7983 | 835.2 | 1.4603 | 1365
x1 = 0.8946 | 833.3 | 1.45808 | 1377
x1 = 0.9504 | 832.4 | 1.45694 | 1384
x1 = 1 | 831.5 | 1.45598 | 1391

C1CCCCC1 [cyclohexane] + c1ccccc1
Conditions | mass density, [1] [kg/m3] | refractive index, [2] | speed of sound, [1] [m/s]
283.15 K, x1 = 0.047 | 882.7 | 1.50275 | 1364
283.15 K, x1 = 0.0984 | 875.6 | 1.49741 | 1358
283.15 K, x1 = 0.1978 | 862.4 | 1.48772 | 1346
283.15 K, x1 = 0.2968 | 850.4 | 1.47886 | 1338
283.15 K, x1 = 0.3929 | 839.4 | 1.47071 | 1331
283.15 K, x1 = 0.4996 | 828.3 | 1.46247 | 1326
283.15 K, x1 = 0.6003 | 818.8 | 1.45532 | 1323
283.15 K, x1 = 0.7022 | 809.9 | 1.44865 | 1322
283.15 K, x1 = 0.7963 | 802.3 | 1.44324 | 1322
283.15 K, x1 = 0.8954 | 794.9 | 1.43781 | 1325
283.15 K, x1 = 0.9501 | 791.2 | 1.43453 | 1327
283.15 K, x1 = 1 | 787.8 | 1.43193 | 1329
298.15 K, x1 = 0.047 | 867.1 | 1.49298 | 1293
298.15 K, x1 = 0.0984 | 859.9 | 1.48771 | 1286
298.15 K, x1 = 0.1978 | 847 | 1.47808 | 1275
298.15 K, x1 = 0.2968 | 835.2 | 1.46965 | 1266
298.15 K, x1 = 0.3929 | 824.5 | 1.46157 | 1259
298.15 K, x1 = 0.4996 | 813.6 | 1.45354 | 1254
298.15 K, x1 = 0.6003 | 804.2 | 1.44654 | 1251
298.15 K, x1 = 0.7022 | 795.5 | 1.44001 | 1249
298.15 K, x1 = 0.7963 | 788 | 1.43431 | 1249
298.15 K, x1 = 0.8954 | 780.8 | 1.42891 | 1250
298.15 K, x1 = 0.9501 | 777.2 | 1.42611 | 1252
298.15 K, x1 = 1 | 773.9 | 1.4236 | 1255

c1ccccc1 [benzene] + CC1CCCCC1
x2 = 0
Conditions | mass density, [1] [kg/m3] | refractive index, [2] | speed of sound, [1] [m/s]
283.15 K | 889.5 | 1.50765 | 1371
298.15 K | 873.6 | 1.49774 | 1299

C1CCCCC1 [cyclohexane] + CCc1ccccc1
x1 = 1
Conditions | mass density, [1] [kg/m3] | refractive index, [2] | speed of sound, [1] [m/s]
283.15 K | 787.8 | 1.43193 | 1329
298.15 K | 773.9 | 1.4236 | 1255

Cc1ccccc1 [toluene]
Conditions | mass density, [3] [kg/m3] | refractive index, [4] | speed of sound, [3] [m/s]
283.15 K | 876.1 | 1.50278 | 1371
298.15 K | 862.2 | 1.49399 | 1305

C1CCCCCCC1 [cyclooctane] + Cc1ccccc1
298.15 K
Conditions | mass density, [1] [kg/m3] | refractive index, [2] | speed of sound, [1] [m/s]
x1 = 0.0488 | 859.8 | 1.49121 | 1307
x1 = 0.1031 | 857 | 1.48824 | 1309
x1 = 0.2021 | 852.5 | 1.48313 | 1315
x1 = 0.2973 | 848.5 | 1.47861 | 1321
x1 = 0.4014 | 844.7 | 1.47411 | 1329
x1 = 0.5 | 841.5 | 1.47026 | 1337
x1 = 0.6005 | 838.7 | 1.46667 | 1347
x1 = 0.6976 | 836.4 | 1.46358 | 1356
x1 = 0.7981 | 834.4 | 1.46073 | 1367
x1 = 0.9007 | 832.8 | 1.45814 | 1378
x1 = 0.9494 | 832.1 | 1.45705 | 1384
x1 = 1 | 831.5 | 1.45598 | 1391
